Article PMC11672637, “7-O-Carboxylic Acid-Substituted 3-O-Alkyl Difluoroquercetin; An Aztreonam-Potentiating Agent Against Carbapenemase-Producing Pseudomonas aeruginosa Through Simultaneous Inhibition of Metallo-β-Lactamase and Efflux Pump” (Antibiotics, 2024)

Legend:
Experiment in all cases: MIC / checkerboard with ATM
Parameters in all cases: key to Susceptibility category: S: susceptible; I: intermediate; R: resistant
[1] = tested on: PA-009, blaGES; assay type: cell-based, P. aeruginosa; conditions: PA-009; Table S2
[2] = tested on: PA-014, blaGES; assay type: cell-based, P. aeruginosa; conditions: PA-014; Table S2
[3] = tested on: PA-035, blaGES; assay type: cell-based, P. aeruginosa; conditions: PA-035, Table S2; for MIC: Pseudomonas aeruginosa, read-out: MIC value
[4] = tested on: PA-003, blaVIM; assay type: cell-based, P. aeruginosa; conditions: PA-003, Table S2; for MIC: Pseudomonas aeruginosa, read-out: MIC value
[5] = tested on: PA-002, blaIMP; assay type: cell-based, P. aeruginosa; conditions: PA-002, Table S2; for MIC: Pseudomonas aeruginosa, read-out: MIC value
[6] = tested on: PA-016, blaIMP; assay type: cell-based, P. aeruginosa; conditions: PA-016; Table S2
[7] = tested on: PA-021, blaIMP; assay type: cell-based, P. aeruginosa; conditions: PA-021; Table S2
[8] = tested on: PA-027, blaIMP; assay type: cell-based, P. aeruginosa; conditions: PA-027; Table S2
[9] = tested on: PA-029, blaIMP; assay type: cell-based, P. aeruginosa; conditions: PA-029; Table S2
[10] = tested on: PA-030, blaIMP; assay type: cell-based, P. aeruginosa; conditions: PA-030; Table S2
[11] = tested on: PA-032, blaIMP; assay type: cell-based, P. aeruginosa; conditions: PA-032, Table S2; for MIC: Pseudomonas aeruginosa, read-out: MIC value
[12] = tested on: NDM-1-Producing P. aeruginosa (PA-017, blaNDM); assay type: cell-based; conditions: PA-017; Table S2
[13] = tested on: PA-025, blaNDM; assay type: cell-based, P. aeruginosa; conditions: PA-025; Table S2
[14] = tested on: PA-026, blaNDM; assay type: cell-based, P. aeruginosa; conditions: PA-026, Table S2; for MIC: Pseudomonas aeruginosa, read-out: MIC value
[15] = tested on: PA-028, blaNDM; assay type: cell-based, P. aeruginosa; conditions: PA-028; Table S2
[16] = tested on: PA-031, blaNDM; assay type: cell-based, P. aeruginosa; conditions: PA-031; Table S2
[17] = tested on: PA-033, blaNDM; assay type: cell-based, P. aeruginosa; conditions: PA-033; Table S2
[18] = tested on: PA-034, blaNDM; assay type: cell-based, P. aeruginosa; conditions: PA-034; Table S2
[19] = tested on: PA-036, blaNDM; assay type: cell-based, P. aeruginosa; conditions: PA-036; Table S2
[20] = tested on: PA-038, blaNDM; assay type: cell-based, P. aeruginosa; conditions: PA-038; Table S2
[21] = tested on: PA-039, blaNDM; assay type: cell-based, P. aeruginosa; conditions: PA-039; Table S2
[22] = tested on: PA-040, blaNDM; assay type: cell-based, P. aeruginosa; conditions: PA-040; Table S2
[23] = tested on: PA-041, blaNDM; assay type: cell-based, P. aeruginosa; conditions: PA-041; Table S2
[24] = tested on: PA-044, blaNDM; assay type: cell-based, P. aeruginosa; conditions: PA-044; Table S2
[25] = tested on: PA-037, blaIMP/NDM; assay type: cell-based, P. aeruginosa; conditions: PA-037; Table S2
[26] = tested on: PA-042, blaIMP/NDM; assay type: cell-based, P. aeruginosa; conditions: PA-042, Table S2; for MIC: Pseudomonas aeruginosa, read-out: MIC value

## CC(C)(O/N=C(\C(=O)N[C@@H]1C(=O)N2C(C(=O)[O-])=C(C[n+]3ccccc3)CS[C@H]12)c1csc(N)n1)C(=O)O [CAZ, ceftazidime, reference compound]
[1]
  Susceptibility category: R
[2]
  Susceptibility category: R
[3]
  Susceptibility category: R
  MIC: > 16 µg/mL
[4]
  Susceptibility category: S
  MIC: 4 µg/mL
[5]
  Susceptibility category: R
  MIC: > 16 µg/mL
[6]
  Susceptibility category: R
[7]
  Susceptibility category: R
[8]
  Susceptibility category: R
[9]
  Susceptibility category: R
[10]
  Susceptibility category: R
[11]
  Susceptibility category: S
  MIC: 8 µg/mL
[12]
  Susceptibility category: R
[13]
  Susceptibility category: R
[14]
  Susceptibility category: R
[15]
  Susceptibility category: R
[16]
  Susceptibility category: R
[17]
  Susceptibility category: R
[18]
  Susceptibility category: R
[19]
  Susceptibility category: R
[20]
  Susceptibility category: R
[21]
  Susceptibility category: R
[22]
  Susceptibility category: R
[23]
  Susceptibility category: R
[24]
  Susceptibility category: R
[25]
  Susceptibility category: R
[26]
  Susceptibility category: R
  MIC: > 16 µg/mL

## CO/N=C(\C(=O)N[C@@H]1C(=O)N2C(C(=O)[O-])=C(C[N+]3(C)CCCC3)CS[C@H]12)c1csc(N)n1 [FEP, cefepime, reference compound]
[1]
  Susceptibility category: R
[2]
  Susceptibility category: R
[3]
  Susceptibility category: S
  MIC: 4 µg/mL
[4]
  Susceptibility category: R
  MIC: > 16 µg/mL
[5]
  Susceptibility category: R
  MIC: > 16 µg/mL
[6]
  Susceptibility category: R
[7]
  Susceptibility category: R
[8]
  Susceptibility category: R
[9]
  Susceptibility category: R
[10]
  Susceptibility category: R
[11]
  Susceptibility category: R
[12]
  Susceptibility category: R
[13]
  Susceptibility category: R
[14]
  Susceptibility category: S
  MIC: 8 µg/mL
[15]
  Susceptibility category: R
[16]
  Susceptibility category: R
[17]
  Susceptibility category: R
[18]
  Susceptibility category: R
[19]
  Susceptibility category: R
[20]
  Susceptibility category: R
[21]
  Susceptibility category: R
[22]
  Susceptibility category: R
[23]
  Susceptibility category: R
[24]
  Susceptibility category: R
[25]
  Susceptibility category: R
[26]
  Susceptibility category: R
  MIC: > 16 µg/mL

## C[C@@H](O)[C@H]1C(=O)N2C(C(=O)O)=C(S[C@@H]3CN[C@H](C(=O)N(C)C)C3)[C@H](C)[C@H]12 [MEM, meropenem, reference compound]
[1]
  Susceptibility category: R
[2]
  Susceptibility category: R
[3]
  Susceptibility category: R
  MIC: 16 µg/mL
[4]
  Susceptibility category: R
  MIC: 16 µg/mL
[5]
  Susceptibility category: R
  MIC: > 32 µg/mL
[6]
  Susceptibility category: R
[7]
  Susceptibility category: R
[8]
  Susceptibility category: R
[9]
  Susceptibility category: R
[10]
  Susceptibility category: R
[11]
  Susceptibility category: R
  MIC: 32 µg/mL
[12]
  Susceptibility category: R
[13]
  Susceptibility category: R
[14]
  Susceptibility category: S
  MIC: ≤ 0.25 µg/mL
[15]
  Susceptibility category: R
[16]
  Susceptibility category: R
[17]
  Susceptibility category: R
[18]
  Susceptibility category: R
[19]
  Susceptibility category: R
[20]
  Susceptibility category: R
[21]
  Susceptibility category: R
[22]
  Susceptibility category: R
[23]
  Susceptibility category: R
[24]
  Susceptibility category: R
[25]
  Susceptibility category: R
[26]
  Susceptibility category: R
